Test results: patent US7273856B2, “Linear basic compounds having NK-2 antagonist activity and formulations thereof” (Menarini Ricerche S.P.A., priority 2001, dated 2007)
Structures can show the parent of a compound that is named as a salt.

Biological target: T1, human NK-2 receptor (Homo sapiens, UniProt P21452)
T1 construct: expressed in transfected cells; host or cells: CHO (Chinese hamster ovary) cells, membranes
T1 sequence (P21452 1-398): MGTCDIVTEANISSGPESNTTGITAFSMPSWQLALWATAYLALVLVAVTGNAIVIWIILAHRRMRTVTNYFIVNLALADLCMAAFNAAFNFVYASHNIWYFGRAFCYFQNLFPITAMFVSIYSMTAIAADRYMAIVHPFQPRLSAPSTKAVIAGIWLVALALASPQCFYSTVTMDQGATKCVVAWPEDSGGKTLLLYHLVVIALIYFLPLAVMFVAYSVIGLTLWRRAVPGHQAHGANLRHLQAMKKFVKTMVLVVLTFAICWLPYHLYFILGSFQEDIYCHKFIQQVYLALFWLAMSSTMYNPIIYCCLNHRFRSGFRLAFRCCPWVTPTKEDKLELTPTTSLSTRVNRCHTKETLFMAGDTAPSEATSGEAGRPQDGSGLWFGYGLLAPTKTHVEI
Assay: binding test, affinity for the human NK-2 receptor, competition with [125I]NKA on transfected CHO cell membranes
Settings: CHO cell membranes transfected with NK-2 receptor of human ileum; [125I]NKA 100 pM; 30 min, 20° C.
Experimental: The evaluation of the antagonist activity on NK-2 receptors has been assessed by binding and functional tests according to that already described in literature in relation to NK-2 antagonists.
The test substances have been tested within a concentration range from 0.01 nM to 10 nM. At the end of the incubation time (30 min, 20° C.) the samples have been filtered and radioactivity has been determined using a gamma-counter.

Row | Structure (SMILES) | Ki | pKi
1 | CN(C)[C@H]1CCCC[C@@H]1NC(=O)[C@@H]1CC[C@H](NC(=O)[C@@H](Cc2ccccc2)NC(=O)C2(NC(=O)c3cc4ccccc4o3)CCCC2)C1 [Example 11, N^γ{N^α[N^α(benzofuran-2-ylcarboxy)-1-aminocyclopentan-1-carboxy]-D-phenylalanyl}-(1R,3S)-3-aminocyclopentane-1-carboxylic-acid-N-((1S,2S)-2-dimethylaminocyclohexyl)amide hydrochloride salt] | 2000 pM | 
2 | O=C(NC1(C(=O)N[C@H](Cc2ccccc2)C(=O)NCC2CCN(CC3CCOCC3)CC2)CCCC1)c1ccc2cc(Br)ccc2c1 [Example 72, 6-Bromo-naphthalene-2-carboxylic acid [1-(2-phenyl-1(R)-{[-(tetrahydro-pyran-4-ylmethyl)-piperidin-4-ylmethyl]-carbamoyl}-ethylcarbamoyl)-cyclopentyl]-amide] |  | 10.0
3 | Cc1ccc(C[C@@H](NC(=O)C2(NC(=O)c3cc4ccccc4n3C)CCCC2)C(=O)N[C@H]2CC[C@@H](C(=O)N[C@H]3CCCC[C@@H]3N)C2)cc1 [Example 17, N^γ{N^α[N^α(N-(methyl)indol-2-ylcarboxy)-1-aminocyclopentan-1-carboxy]-R-3-(4-methyl)phenyl)alanyl}-(1R,3S)-3-aminocyclopentane-1-carboxylic-acid-N-((1S,2S)-2-aminocyclohexyl)amide hydrochloride salt] | 2510 pM | 
4 | O=C(NC1(C(=O)N[C@H](Cc2ccccc2)C(=O)NCCC(=O)N2CCN(CC3COCOC3)CC2)CCCC1)c1cc2ccccc2s1 [Example 62, Benzo[b]thiophene-2-carboxylic acid (1-{1(R)-[3-(4-[1,3]dioxan-5-ylmethyl-piperazin-1-yl)3-oxo-propylcarbamoyl]-2-phenyl-ethylcarbamoyl}-cyclopentyl)-amide TFA salt] | 2000 pM | 
5 | O=C(NC1(C(=O)N[C@H](Cc2ccccc2)C(=O)NCCN2CCN(CC3CCOCC3)CC2)CCCC1)c1cc2ccccc2s1 [Example 101, Benzo[b]thiophene-2-carboxylic acid [1-(2-phenyl-1(R)-{2-[4-(tetrahydro-pyran-4-ylmethyl)-piperazin-1-yl]-ethylcarbamoyl}-ethylcarbamoyl)-cyclopentyl)-amide TFA salt] | 1260 pM | 
6 | O=C(NC1(C(=O)NC(Cc2ccccc2)C(=O)NCC2CCN(CC3CCOCC3)CC2)CCCC1)c1ccc2ccccc2c1 (stereo not drawn) [Example 149, Naphthalene-2-carboxylic acid [1-(2-phenyl-1-{[1R-(tetrahydro-pyran-4-ylmethyl)-piperidin-4ylmethyl]-carbamoyl}-ethylcarbamoyl)-cyclopentyl]-amide] |  | 9.9
7 | Cn1c(C(=O)NC2(C(=O)N[C@H](Cc3ccccc3)C(=O)N[C@H]3CC[C@@H](C(=O)N[C@H]4CCCC[C@@H]4N)C3)CCCC2)cc2ccccc21.O=C(O)C(F)(F)F [Example 4, N^γ{N^α[N^α(N-(methyl)indol-2-ylcarboxy)-1-aminocyclopentan-1-carboxy]-D-phenylalanyl}-(1R,3S)-3-aminocyclopentane-1-carboxylic-acid-N-((1S,2S)-2-aminocyclohexyl) amide trifluoroacetate salt] |  | 9.8
8 | N#CCN1CCN(C(=O)CCNC(=O)[C@@H](Cc2ccccc2)NC(=O)C2(NC(=O)c3cc4ccccc4s3)CCCC2)CC1 [Example 65, Benzo[b]thiophene-2-carboxylic acid (1-{1(R)-[3-(4-cyanomethyl-piperazin-1-yl)-3-oxo-propylcarbamoyl]-2-phenyl-ethylcarbamoyl}-cyclopentyl)-amide] | 1000 pM | 
9 | NC1(C(=O)NCCNC(=O)[C@@H](Cc2ccccc2)NC(=O)C2(NC(=O)c3cc4ccccc4s3)CCCC2)CCCCC1 [Example 95] | 1580 pM | 

Next, values leading:

Row | Ki | pKi | Structure (SMILES)
10 | 79.4 pM |  | O=C(NC1(C(=O)N[C@H](Cc2ccccc2)C(=O)NCC2CCN(CC3CCOCC3)CC2)CCCC1)c1cc2cccc(Cl)c2s1 [Example 137, 7-Chloro-benzo[b]thiophene-2-carboxylic acid [1-(2-phenyl-1R-{[1-(tetrahydro-pyran-4-ylmethyl)-piperidin-4-ylmethyl]-carbamoyl}-ethylcarbamoyl)-cyclopentyl]-amide]
11 | 794 pM |  | O=C(C=Cc1ccc(Cl)c(Cl)c1)NC1(C(=O)N[C@H](Cc2ccccc2)C(=O)NCCCN2CCOCC2)CCCC1 [Example 44, 1-[3-(3,4-dichlorophenyl)-acryloylamino]-cyclopentanecarboxylic acid, [1-(3-morpholin-4-yl-propylcarbamoyl)-2-(R)-phenyl-ethyl]-amide]
12 | 631 pM |  | CCN(CC)c1ccc2oc(C(=O)NC3(C(=O)N[C@H](Cc4ccccc4)C(=O)NCC4CCN(CC5CCOCC5)CC4)CCCC3)cc2c1 [Example 147]
13 | 31.6 pM |  | O=C(NC1(C(=O)N[C@H](Cc2ccccc2)C(=O)NCC2CCN(CC3CCOCC3)CC2)CCCC1)c1cc2cccc(I)c2s1 [Example 132, 7-Iodo-benzo[b]thiophene-2-carboxylic acid [1-(2-phenyl-1R-{[1-(tetrahydro-pyran 4-ylmethyl)-piperidin-4-ylmethyl]-carbamoyl}-ethylcarbamoyl)-cyclopentyl]-amide]
14 | 63.1 pM |  | O=C(NC1(C(=O)N[C@H](Cc2ccccc2)C(=O)NCC2CCN(CC3CCCCC3)CC2)CCCC1)c1cc2ccccc2s1 [Example 79, Benzo[b]thiophene-2-carboxylic acid (1-{1(R)-[(1-cyclohexylmethyl-piperidin-4 ylmethyl)-carbamoyl]-2-phenyl-ethylcarbamoyl}-cyclopentyl)-amide]
15 | 251 pM |  | NC1CCCCC1NC(=O)C1CCC(NC(=O)C(Cc2ccccc2)NC(=O)C2(NC(=O)c3cc4ccccc4s3)CCCCC2)C1 (single isomer, unassigned) [Example 25]
16 | 50.1 pM |  | O=C(NC1(C(=O)N[C@H](Cc2ccccc2)C(=O)NCC2CCN(CC3CCOCC3)CC2)CCCC1)c1ccc2cc(I)ccc2c1 [Example 117, 6-Iodo-naphthalene-2-carboxylic acid (1-(2-phenyl-1R-{[1-(tetrahydro-pyran-4-ylmethyl)-piperidin-4-ylmethyl]-carbamoyl}-ethylcarbamoyl)-cyclopentyl]-amide]
17 | 1000 pM |  | O=C(NC1(C(=O)N[C@H](Cc2ccccc2)C(=O)NCCCN2CCC3(CC2)OCCO3)CCCC1)c1cc2ccccc2s1 [Example 55, Benzo[b]thiophene-2-carboxylic acid (1-{1(R)-[3-(1,4-dioxa-8-aza-spiro[4.5]dec-8-yl)-propylcarbamoyl]-2-phenyl-ethylcarbamoyl}-cyclopentyl)-amide TFA salt]
18 | 126 pM |  | Cc1ccc(C=CC(=O)NC2(C(=O)NC(Cc3ccccc3)C(=O)NC3CCC(CN4CCOCC4)C3)CCc3ccccc32)cc1 (mixture of isomers) [Example 7, N^α[N^α(4(methyl)cinnamoyl)-(R,S)1-aminoindane-1-carboxy]-D-phenylalanine amide-N-[(1S,3R)-3-(morpholin-4-ylmethyl)cyclopentyl]]
19 | 794 pM |  | O=C(NC1(C(=O)N[C@H](Cc2ccccc2)C(=O)NCC2CCN(CC3COCOC3)CC2)CCCC1)c1cc2ccccc2s1 [Example 88, Benzo[b]thiophene-2-carboxylic acid (1-{1(R)-[(1-[1,3]dioxan-5-ylmethyl-piperidin-4-ylmethyl)carbamoyl]-2-phenyl-ethylcarbamoyl}-cyclopentyl)-amide TFA salt]
20 | 251 pM |  | NC1CCCCC1NC(=O)C1CCCC(NC(=O)C(Cc2ccccc2)NC(=O)C2(NC(=O)c3cc4ccccc4s3)CCCCC2)C1 (single isomer, unassigned) [Example 21]
